Data from US20080299566A1, “Methylation of Gene Promoters as a Predictor of Effectiveness of Therapy” (priority 2006, published 2008).

Experiments:
[1] = tested on: EAC cell line OE33; assay: 5AzaC treatment of EAC cell line OE33; qMSP and real-time RT-PCR for Reprimo; format: cell-based; conditions: 1 μl of 5 mM 5AzaC per ml of cells every 24 hours for 6 days, harvested day 0, 2, 4, 6
Description: (§1) DNA methylation of Reprimo was determined by qMSP using the ABI 7700 Taqman system (Eads C. A. et al., (2001)). MSP distinguishes methylated alleles of a given gene based on DNA sequence alterations after bisulfite treatment of DNA. Bisulfite treatment converts unmethylated but not methylated cytosines to uracils. Subsequent PCR using primers and probe specific to the corresponding methylated DNA sequence is then performed. (Eads C. A. et al., (2001)).
(§2) The normalized MSP value (NMV) was calculated by dividing the ratio of the qMSP value for Reprimo to β-actin for each sample by the ratio of the qMSP value for Reprimo to, β-actin for Universal Methylated DNA (See Sato F. et al., Cancer Res., 62:6820-6822 (2002) and Shibata, D. M., et al., Cancer Res., 62:5637-5640 (2002)). Qualitative MSP status was determined by analyzing the normalized MSP value. A normalized MSP value of 0.05 was assigned as the cutoff point for classifying methylation status as qualitatively positive (≧0.05) or negative (<0.05). This cutoff point had been previously determined by ROC curve analysis (See Shibata, D. M., et al., (2002)).
(§3) This treatment protocol has been published previously (Shibata, D. M., et al., Cancer Res., 62:5637-5640 (2002)). […]

[2] = tested on: ESCC cell line KYSE 110; assay: 5AzaC treatment of ESCC cell line KYSE 110; qMSP and real-time RT-PCR for Reprimo; format: cell-based; conditions: 1 μl of 5 mM 5AzaC per ml of cells every 24 hours for 6 days, harvested day 0, 2, 4, 6
Description: as §1, §2, §3

Nc1ncn([C@H]2C[C@H](O)[C@@H](CO)O2)c(=O)n1 [5AzaC, 5-Aza-2′-Deoxycytidine]
Reprimo mRNA expression [1]: increased Reprimo mRNA expression | Reprimo methylation (qMSP) [1]: reduction in Reprimo methylation | Reprimo mRNA expression [2]: increased Reprimo mRNA expression | Reprimo methylation (qMSP) [2]: reduction in Reprimo methylation
